Experimental data as given in US8338472B2, “Hexahydrocyclopentyl[F]indazole carboxamides and derivatives thereof as selective glucocorticoid receptor modulators” (Merck Sharp & Dohme Corp., priority 2008, dated 2012).
Where two headings read alike, the source gives them in different places.

What was measured:
[1] = target: T1, Glucocorticoid Receptor (Homo sapiens, UniProt P04150); experiment: Trans-Activation Modulation of Glucocorticoid Receptor (GRAMMER), MMTV-LUC reporter gene in A549 cells; format: cell-based; conditions: Table 1; for Emax: A549, A549 cells, Emax relative to 300 nM dexamethasone, read-out: Transactivation A549 Cells GRAMMER Emax; for EC50: inflection point, A549 cells, read-out: Transactivation A549 Cells GRAMMER IP
T1 construct: These cells express large amount of the GR and are very responsive to GC treatment; endogenous in cells; host or cells: A549 cells transiently transfected with the MMTV-LUC reporter
T1 sequence (P04150 1-777): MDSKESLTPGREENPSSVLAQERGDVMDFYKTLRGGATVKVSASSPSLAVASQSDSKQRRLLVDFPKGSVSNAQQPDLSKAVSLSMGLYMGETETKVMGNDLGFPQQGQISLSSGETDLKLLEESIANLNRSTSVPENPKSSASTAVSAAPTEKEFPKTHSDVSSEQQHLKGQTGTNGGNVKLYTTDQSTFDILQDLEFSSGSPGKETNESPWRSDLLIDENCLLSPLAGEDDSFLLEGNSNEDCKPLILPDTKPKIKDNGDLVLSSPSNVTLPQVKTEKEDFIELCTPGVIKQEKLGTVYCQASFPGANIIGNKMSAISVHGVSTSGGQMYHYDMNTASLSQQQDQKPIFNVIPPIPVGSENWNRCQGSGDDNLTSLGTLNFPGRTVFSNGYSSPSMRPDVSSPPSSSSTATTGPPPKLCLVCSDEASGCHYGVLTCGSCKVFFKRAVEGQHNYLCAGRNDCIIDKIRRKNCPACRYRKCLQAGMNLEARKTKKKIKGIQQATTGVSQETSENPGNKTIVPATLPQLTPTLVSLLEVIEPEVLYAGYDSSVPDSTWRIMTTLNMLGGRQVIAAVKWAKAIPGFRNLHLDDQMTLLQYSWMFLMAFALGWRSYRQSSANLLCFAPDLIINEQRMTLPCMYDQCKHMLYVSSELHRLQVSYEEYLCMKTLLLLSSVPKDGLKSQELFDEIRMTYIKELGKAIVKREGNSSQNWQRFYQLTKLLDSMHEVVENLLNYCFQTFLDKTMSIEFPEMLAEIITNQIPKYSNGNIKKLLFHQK
Summary of the method: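 Luciferase from a transiently transfected MMTV-LUC reporter was measured after 24 h compound exposure (≤1% DMSO) in A549 or MDA-MB-453 cells. For antagonism, the decrease of 10 nM dexamethasone-induced signal was calculated. For agonism, Emax was referenced to 300 nM dexamethasone.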

[2] = target: T2, human GR (Homo sapiens, UniProt P04150); experiment: Transrepression Assay (GITAR), TNFα-β-lactamase reporter gene in U937 cells; format: cell-based; conditions: for GITAR Greater than by GRAMMER % SEP: GITAR Emax minus GRAMMER Emax; for EC50: inflection point, U937 cells, read-out: Transrepression U937 Cells GITAR IP
T2 construct: U937 cells contain an endogenous glucocorticoid receptor (GR); endogenous in cells; host or cells: U937 cells stably transfected with the TNF-alpha promoter/beta-lactamase reporter
T2 sequence (P04150 1-777): T1 sequence (P04150 1-777)
Summary of the method: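 Repression of PMA (5 ng/ml final)/LPS (100 ng/ml final)-induced TNF-α promoter activity, read as β-lactamase cleavage of CCF2-AM, in stably transfected U937 cells expressing native GR. Compound added 30-45 min before stimulation, overnight (~18 hr) 37° C; normalized to 100 nM dexamethasone (100%).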

[3] = target: T3, glucocorticoid receptor (GR) (Homo sapiens, UniProt P04150); experiment: Ligand binding assay (GR BIND), 3H-dexamethasone displacement in MDA-MB-453 cell lysate; conditions: GR BIND Ki, Table 1
T3 sequence (P04150 1-777): T1 sequence (P04150 1-777)
Protocol: Binding Buffer: TEGM (10 mM Tris-HCl, 1 mM EDTA, 10% glycerol, 1 mM beta-mecaptoethanol, 10 mM Sodium Molybdate, pH 7.2)
50% HAP Slurry: Calbiochem Hydroxylapatite, Fast Flow, in 10 mM Tris, pH 8.0 and 1 mM EDTA.
Wash Buffer: 40 mM Tris, pH7.5, 100 mM KCl, 1 mM EDTA and 1 mM EGTA.
Dexmethasone-methyl-^3H, (DEX*); (Amersham cat# TRK645)
Dexamethasone(DEX) (Sigma, cat# D1756):
The cell pellet is washed twice with TEGM (10 mM Tris-HCl, 1 mM EDTA, 10% glycerol, 1 mM beta-mercaptoethanol, 10 mM Sodium Molybdate, pH 7.2). After the final wash, the cells are resuspended in TEGM at a concentration of 10^7 cells/mL. The cell suspension is snap frozen in liquid nitrogen or ethanol/dry ice bath and transferred to −80° C. freezer on dry ice. Before setting up the binding assay, the frozen samples are left on ice-water to just thaw (˜1 hr). Then the samples are centrifuged at 12,500 g to 20,000 g for 30 min at 4° C. The supernatant is used to set-up assay right away. If using 50 μL of supernatant, the test compound can be prepared in 50 μL of the TEGM buffer.
Procedure for Multiple Compound Screening
1×TEGM buffer is prepared, and the isotope-containing assay mixture is prepared in the following order: EtOH (2% final concentration in reaction), ^3H-DEX (Amersham Biosciences) and 1×TEGM. [e.g. For 100 samples, 200 μL (100×2) of EtOH+4.25 μL of 1:10 ^3H-Dex stock+2300 μL (100×23) 1×TEGM]. The compound is serially diluted, e.g., if starting final conc. is 1 μM, and the compound is in 25 μL of solution, for duplicate samples, 75 μL of 4×1 μM solution is made and 3 μL of 100 μM is added to 72 μL of buffer, and 1:5 serial dilution.
25 μL of ^3H-DEX (6 nM) trace and 25 μL compound solution are first mixed together, followed by addition of 50 μL receptor solution. The reaction is gently mixed, spun briefly at about 200 rpm and incubated at 4° C. overnight. 100 μL of 50% HAP slurry is prepared and added to the incubated reaction which is then vortexed and incubated on ice for 5 to 10 minutes. The reaction mixture is vortexed twice more to resuspend HAP while incubating reaction. The samples in 96-well format are then washed in wash buffer using The FilterMate™ Universal Harvester plate washer (Packard). The washing process transfers HAP pellet containing ligand-bound expressed receptor to Unifilter-96 GF/B filter plate (Packard). The HAP pellet on the filter plate is incubated with 50 μL of MICROSCINT (Packard) scintillint for 30 minutes before being counted on the TopCount microscintillation counter (Packard). IC50s are calculated using DEX as a reference.

[4] = U-937, U937 cells, activity repressed by 100 nM dexamethasone = 100%, Table 1, read-out: Transrepression U937 Cells GITAR Emax
[5] = U-937, text statement, 100 nM dexamethasone = 100%, read-out: maximal activity in the transrepression assay (GITAR)

Row | Compound | Emax [1] | EC50 [1] | GITAR Greater than by GRAMMER % SEP ([2]; Table 1) | Emax [2, 4] | Emax [2, 5] | EC50 ([2]; Table 1) | Ki [3]
1 | CC(C)CN(C)C(=O)[C@H]1CCC2=Cc3c(cnn3-c3ccc(F)cc3)C[C@@]21C [Compound 54, (4αR,5S)-1-(4-fluorophenyl)-N-isobutyl-N,4α-dimethyl-1,4,4α,5,6,7-hexahydrocyclopenta[f]indazole-5-carboxamide] | 3.1% | 1250 nM | 37.4% | 40.5% | > 5% | 2210 nM | 32.1 nM
2 | Cc1ccc(CCN(CC(O)C(F)(F)F)C(=O)[C@H]2CCC3=Cc4c(cnn4-c4ccc(F)cc4)C[C@@]32C)cc1 (stereo partly drawn) [Compound 82, (4αR,5S)-1-(4-fluorophenyl)-4α-methyl-N-[2-(4-methylphenyl)ethyl]-N-(3,3,3-trifluoro-2-hydroxypropyl)-1,4,4α,5,6,7-hexahydrocyclopenta[f]indazole-5-carboxamide] | 10.3% | 274 nM | 32.8% | 43.1% | > 5% | 362 nM | 0.9 nM
3 | C[C@H](O)CN(CCC(F)(F)F)C(=O)[C@H]1CCC2=Cc3c(cnn3-c3ccc(F)cc3)C[C@@]21C [Compound 73, (4αR,5S)-1-(4-fluorophenyl)-N-[(2S)-2-hydroxypropyl]-4α-methyl-N-(3,3,3-trifluoropropyl)-1,4,4α,5,6,7-. hexahydrocyclopenta[f]indazole-5-carboxamide] | 71.1% | 152 nM | 18.4% | 89.5% | > 5% | 137 nM | 2.1 nM
4 | C[C@]12Cc3cnn(-c4ccc(F)cc4)c3C=C1CC[C@@H]2C(=O)N1CCC(S(=O)(=O)c2ccccc2)CC1 [Compound 51, (4αR,5S)-1-(4-fluorophenyl)-4α-methyl-5-{[4-(phenylsulfonyl)piperidin-1-yl]carbonyl}1,4,4α,5,6,7-hexahydrocyclopenta[f]indazole] | 2.9% | 1190 nM | 32.2% | 35.1% | > 5% | 1380 nM | 39.5 nM
5 | C[C@]12Cc3cnn(-c4ccc(F)cc4)c3C=C1CC[C@@H]2C(=O)N(CCC#N)C1CC1 [Compound 14, (4αR,5S)-N-(2-cyanoethyl)-N-cyclopropyl-1-(4-fluorophenyl)-4α-methyl-1,4,4α,5,6,7-hexahydrocyclopenta[f]indazole-5-carboxamide] | 11.2% | 1420 nM | 27.1% | 38.3% | > 5% | 1590 nM | 10.8 nM
6 | CN(CCC(F)(F)F)C(=O)[C@H]1CCC2=Cc3c(cnn3-c3ccc(F)cc3)C[C@@]21C [Compound 90, (4αR,5S)-1-(4-fluorophenyl)-N,4α-dimethyl-N-(3,3,3-trifluoropropyl)-1,4,4α,5,6,7-hexahydrocyclopenta[f]indazole-5-carboxamide] | 20.3% | 565 nM | 24.2% | 44.5% | > 5% | 609 nM | 17.3 nM
7 | C[C@]12Cc3cnn(-c4ccc(F)cc4)c3C=C1CC[C@@H]2C(=O)N(CCc1ccccc1F)CC(O)CC(F)(F)F (stereo partly drawn) [Compound 94, (4αR,5S)-l-(4-fluorophenyl)-N-[2-(2-fluorophenyl)ethyl]-4α-methyl-N-(4,4,4-trifluoro-2-hydroxybutyl)-1,4,4α,5,6,7-hexahydrocyclopenta[f]indazole-5-carboxamide] | 43.8% | 363 nM | 8.0% | 51.8% |  | 531 nM | 1.8 nM
8 | C[C@]12Cc3cnn(-c4ccc(F)cc4)c3C=C1CC[C@@H]2C(=O)N1CCCCC1Cc1ccccc1 (stereo partly drawn) [Compound 22, (4αR,5S)-5-[(2-benzylpiperidin-1-yl)carbonyl]-1-(4-fluorophenyl)-4α-methyl-1,4,4α,5,6,7-hexahydrocyclopenta[f]indazole] | 5.5% | 386 nM | 11.7% | 17.3% | > 5% | 1970 nM | 4.8 nM
9 | C[C@]12Cc3cnn(-c4ccc(F)cc4)c3C=C1CC[C@@H]2C(=O)N(CCO)Cc1csc2ccc(Cl)cc12 [Compound 31, (4αR,5S)-N-[(5-chloro-1-benzothien-3-yl)methyl]-1-(4-fluorophenyl)-N-(2-hydroxyethyl)-4α-methyl-1,4,4α,5,6,7-hexahydrocyclopenta[f]indazole-5-carboxamide] | 2.6% | 359 nM | 12.9% | 15.5% | > 5% | 1230 nM | 7.9 nM
10 | CN(CC#N)C(=O)[C@H]1CCC2=Cc3c(cnn3-c3ccc(F)cc3)C[C@@]21C [Compound 41, (4αR,5S)-N-(cyanomethyl)-1-(4-fluorophenyl)-N,4α-dimethyl-1,4,4α,5,6,7-hexahydrocyclopenta[f]indazole-5-carboxamide] | 5.6% | 4050 nM | 35.4% | 41% | > 5% | 2360 nM | 44.3 nM
11 | C[C@]12Cc3cnn(-c4ccc(F)cc4)c3C=C1CC[C@@H]2C(=O)N1CCCC1CCc1ccccc1 (stereo partly drawn) [Compound 19, (4αR,5S)-1-(4-fluorophenyl)-4α-methyl-5-{[2-(2-phenylethyl)pyrrolidin-1-yl]carbonyl}-1,4,4α,5,6,7-hexahydrocyclopenta[f]indazole] | 4% | 1690 nM | 6.2% | 10.2% | > 5% | 4260 nM | 4.5 nM
12 | CCCN(CCC)C(=O)[C@H]1CCC2=Cc3c(cnn3-c3ccc(F)cc3)C[C@@]21C [Compound 1, (4αR,5S)-1-(4-Fluorophenyl)-4α-methyl-N,N-dipropyl-1,4,4α,5,6,7-hexahydrocyclopenta[f]indazole-5-carboxamide] | 45.3% | 177 nM | 22.2% | 67.5% | > 5% | 328 nM | 1.7 nM
13 | CN(C(=O)[C@H]1CCC2=Cc3c(cnn3-c3ccc(F)cc3)C[C@@]21C)C1CCCCC1 [Compound 44, (4αR,5S)-N-cyclohexyl-1-(4-fluorophenyl)-N,4α-dimethyl-1,4,4α,5,6,7-hexahydrocyclopenta[f]indazole-5-carboxamide] | 3.2% | 398 nM | 35.3% | 38.5% | > 5% | 1810 nM | 23.2 nM
14 | CCNC(=O)CN(CCc1ccccc1)C(=O)[C@H]1CCC2=Cc3c(cnn3-c3ccc(F)cc3)C[C@@]21C [Compound 24, (4αR,5S)-N-[2-(ethylamino)-2-oxoethyl]-1-(4-fluorophenyl)-4α-methyl-N-(2-phenylethyl)-1,4,4α,5,6,7-hexahydrocyclopenta[f]indazole-5-carboxanide] | 9.2% | 615 nM | 5.3% | 14.5% | > 5% | 405 nM | 4.7 nM
15 | C[C@]12Cc3cnn(-c4ccc(F)cc4)c3C=C1CC[C@@H]2C(=O)N(CCO)Cc1ccccc1 [Compound 36, (4αR,5S)-N-benzyl-1-(4-fluorophenyl)-N-(2-hydroxyethyl)-4α-methyl-1,4,4α,5,6,7-hexahydrocyclopenta[f]indazole-5-carboxamide] | 12.5% | 872 nM | 54.9% | 67.4% | > 5% | 1280 nM | 11.7 nM
